Data on ten molecules can be found in ChEMBL document CHEMBL4400521, “Plasma kallikrein cleaves and inactivates apelin-17: Palmitoyl- and PEG-extended apelin-17 analogs as metabolically stable blood pressure-lowering agents” (Eur J Med Chem, 2019).

Calls of active or inactive are those of the source. No cut-off for these calls is given here. Non-standard residues stand in square brackets, D forms with d. Residues, ends and D or L forms follow the SMILES beside them. *: point of attachment. Phe(4-Br) = N[C@@H](Cc1ccc(Br)cc1)C(=O)O; Fmoc = O=C(OCC1c2ccccc2-c2ccccc21)*; PEG6 = NCCOCCOCCOCCOCCOCCOCCC(=O)O; Palmitoyl = CCCCCCCCCCCCCCCC(=O)*; NMeL = CN[C@@H](CC(C)C)C(=O)O; Nle = CCCC[C@H](N)C(=O)O; Aib = CC(C)(N)C(=O)O

Series [1] deals with T1, Apelin receptor (Rattus norvegicus) (UniProt Q9JHG3).
T1 sequence (whole entry): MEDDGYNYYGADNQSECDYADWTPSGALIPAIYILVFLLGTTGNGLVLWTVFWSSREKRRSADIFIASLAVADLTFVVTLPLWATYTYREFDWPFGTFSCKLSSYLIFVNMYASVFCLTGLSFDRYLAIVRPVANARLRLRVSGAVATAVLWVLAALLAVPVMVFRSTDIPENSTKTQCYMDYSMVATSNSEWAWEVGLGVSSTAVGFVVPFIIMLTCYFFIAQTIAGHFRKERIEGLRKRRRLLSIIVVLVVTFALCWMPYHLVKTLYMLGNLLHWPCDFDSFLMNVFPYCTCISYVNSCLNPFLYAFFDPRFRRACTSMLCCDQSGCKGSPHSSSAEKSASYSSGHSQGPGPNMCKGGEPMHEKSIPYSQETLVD
Nature of the series: Displacement of [125I]-(Glp1,Nle11,[…])apelin-13 from recombinant rat EGFP-fused apelin receptor expressed in CHO cell membrane measured after 3 hrs. Type of series: cell membranes.

Series [2] relates to Mus musculus. Nature of the series: Blood pressure lowering activity in anesthetized mouse assessed as change in mean arterial blood pressure at 1.4 uM/kg, iv. The format is functional. Conditions: TDE = time-dependent effect.
In series [3] the test system is CCCC[C@H](NC(=O)[C@@H]1CCCN1C(=O)CNC(=O)[C@H](CCCCN)NC(=O)[C@H](Cc1c[nH]cn1)NC(=O)[C@H](CO)NC(=O)[C@H](CC(C)C)N(C)C(=O)[C@H](CCCNC(=N)N)NC(=O)[C@@H]1CCCN1C(=O)[C@H](CCCNC(=N)N)NC(=O)[C@H](CCC(N)=O)NC(=O)[C@H](CCCNC(=N)N)NC(=O)[C@H](CCCNC(=N)N)NC(=O)[C@H](Cc1ccccc1)NC(=O)[C@@H](N)CCCCN)C(=O)NC(C)(C)C(=O)N[C@@H](Cc1ccc(Br)cc1)C(=O)O. The experiment in a line: (§1) Substrate activity at recombinant human C-terminal His6-tagged KLKB1 (Pro19 to Ser262 residues) expressed in mammalian expression system assessed as Km measured after 30 to 60 mins by LC-MS analysis. Type of series: ADME.

The test system of series [4] is CCCC[C@H](NC(=O)[C@@H]1CCCN1C(=O)CNC(=O)[C@H](CCCCN)NC(=O)[C@H](Cc1c[nH]cn1)NC(=O)[C@H](CO)NC(=O)[C@H](CC(C)C)NC(=O)[C@H](CCCNC(=N)N)NC(=O)[C@@H]1CCCN1C(=O)[C@H](CCCNC(=N)N)NC(=O)[C@H](CCC(N)=O)NC(=O)[C@H](CCCNC(=N)N)NC(=O)[C@H](CCCNC(=N)N)NC(=O)[C@H](Cc1ccccc1)NC(=O)[C@@H](N)CCCCN)C(=O)NC(C)(C)C(=O)N[C@@H](Cc1ccc(Br)cc1)C(=O)O. The description is as §1. The format is ADME.

Series [5] has as its system CSCC[C@H](NC(=O)[C@H](CO)NC(=O)[C@H](CO)NC(=O)[C@H](CC(C)C)NC(=O)[C@@H](N)CO)C(=O)N[C@H](C(=O)N[C@@H](CCCNC(=N)N)C(=O)N[C@H](C(=O)N[C@H](C(=O)NCC(=O)NCC(=O)O)C(C)C)C(C)C)[C@@H](C)O. Nature of the series: Substrate activity at human KLKB1 assessed as Km by spectrofluorimetric method. The format is ADME.
Series [6] relates to CC[C@H](C)[C@H](NC(=O)[C@H](CCCNC(=N)N)NC(=O)[C@H](CC(C)C)NC(=O)[C@H](CO)NC(=O)[C@H](CCCNC(=N)N)NC(=O)[C@H](Cc1ccccc1)NC(=O)[C@@H]1CCCN1C(=O)[C@H](CO)NC(=O)[C@H](Cc1ccccc1)NC(=O)CNC(=O)c1ccccc1N)C(=O)N[C@@H](CCC(N)=O)C(=O)NCCNc1ccc([N+](=O)[O-])cc1[N+](=O)[O-]. The experiment in a line: (§2) Substrate activity at human KLKB1 assessed as Km by fluorescence assay. The format is ADME.

Series [7] has as its system CC[C@H](C)[C@H](NC(=O)[C@H](CCCNC(=N)N)NC(=O)[C@H](CO)NC(=O)[C@H](CO)NC(=O)[C@H](CCCNC(=N)N)NC(=O)[C@H](Cc1ccccc1)NC(=O)[C@@H]1CCCN1C(=O)[C@H](CO)NC(=O)[C@H](Cc1ccccc1)NC(=O)CNC(=O)c1ccccc1N)C(=O)N[C@@H](CCC(N)=O)C(=O)NCCNc1ccc([N+](=O)[O-])cc1[N+](=O)[O-]. The description is as §2. The format is ADME.
Series [8] deals with Mus musculus. Nature of the series: Blood pressure lowering activity in anesthetized mouse assessed as increase in heart rate at 1.4 uM/kg, iv measured up to 60 mins. Type of series: functional, organism-based.

Sequence of Plasma kallikrein (Homo sapiens) (chain, as listed by the source): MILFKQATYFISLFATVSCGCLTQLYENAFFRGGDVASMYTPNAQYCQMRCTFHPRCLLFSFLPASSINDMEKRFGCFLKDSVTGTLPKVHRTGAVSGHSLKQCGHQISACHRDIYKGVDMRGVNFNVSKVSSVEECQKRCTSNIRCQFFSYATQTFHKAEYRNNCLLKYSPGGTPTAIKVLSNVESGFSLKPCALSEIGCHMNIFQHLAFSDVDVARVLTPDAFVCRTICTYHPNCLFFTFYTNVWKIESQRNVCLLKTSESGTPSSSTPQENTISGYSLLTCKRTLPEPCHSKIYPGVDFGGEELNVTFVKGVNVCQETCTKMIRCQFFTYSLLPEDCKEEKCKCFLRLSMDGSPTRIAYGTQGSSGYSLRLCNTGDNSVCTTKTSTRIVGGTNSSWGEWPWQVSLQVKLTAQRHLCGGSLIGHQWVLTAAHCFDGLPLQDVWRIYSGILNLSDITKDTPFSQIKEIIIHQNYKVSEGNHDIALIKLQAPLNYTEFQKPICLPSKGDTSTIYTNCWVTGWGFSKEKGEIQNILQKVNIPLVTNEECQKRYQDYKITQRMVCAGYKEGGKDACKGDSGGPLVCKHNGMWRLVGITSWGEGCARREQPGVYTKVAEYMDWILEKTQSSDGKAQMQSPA

`CCCC[C@H](NC(=O)[C@@H]1CCCN1C(=O)CNC(=O)[C@H](CCCCN)NC(=O)[C@H](Cc1c[nH]cn1)NC(=O)[C@H](CO)NC(=O)[C@H](CC(C)C)NC(=O)[C@H](CCCNC(=N)N)NC(=O)[C@@H]1CCCN1C(=O)[C@H](CCCNC(=N)N)NC(=O)[C@H](CCC(N)=O)NC(=O)[C@H](CCCNC(=N)N)NC(=O)[C@H](CCCNC(=N)N)NC(=O)[C@H](Cc1ccccc1)NC(=O)[C@@H](N)CCCCN)C(=O)NC(C)(C)C(=O)N[C@@H](Cc1ccc(Br)cc1)C(=O)O` (H-KFRRQRPRLSHKGP[Nle][Aib][Phe(4-Br)]-OH): in series [1], the “displacement activity (active/inactive)” value is “Active”. Moreover, the Activity result in series [2] was “Tde”.
Turning to Plasma kallikrein (Homo sapiens), the Km in series [3] was found to be 245 µM; in series [4], 30 µM; in series [5], 2.4 µM; in series [6] it was 1.8 µM; in series [7], 2.2 µM. Besides, the figures for the Vmax in series [3] and in series [4] were 3.71 µmol/min and 0.316 µmol/min, respectively. Besides, the kcat in series [3] amounted to 16.5 s⁻¹; in series [4] it was 1.4 s⁻¹; in series [5], 0.001 s⁻¹. Moreover, the kcat/Km was determined as 67000 M⁻¹ s⁻¹ in series [3], 47000 M⁻¹ s⁻¹ in series [4] and 420 M⁻¹ s⁻¹ in series [5].
For `CCCC[C@H](NC(=O)[C@@H]1CCCN1C(=O)CNC(=O)[C@H](CCCCN)NC(=O)[C@H](Cc1cnc[nH]1)NC(=O)[C@H](CO)NC(=O)[C@H](CC(C)C)NC(=O)[C@H](CCCNC(=N)N)NC(=O)[C@@H]1CCCN1C(=O)[C@H](CCCNC(=N)N)NC(=O)[C@H](CCC(N)=O)NC(=O)[C@@H](N)CCCNC(=N)N)C(=O)NC(C)(C)C(=O)N[C@@H](Cc1ccc(Br)cc1)C(=O)O` (H-RQRPRLSHKGP[Nle][Aib][Phe(4-Br)]-OH), the “displacement activity (active/inactive)” value in series [1] was “Active”. The Activity entry in series [2] was “Tde”.
The corresponding values for `CCCC[C@H](NC(=O)[C@@H]1CCCN1C(=O)CNC(=O)[C@H](CCCCN)NC(=O)[C@H](Cc1cnc[nH]1)NC(=O)[C@H](CO)NC(=O)[C@H](CC(C)C)N(C)C(=O)[C@H](CCCNC(=N)N)NC(=O)[C@@H]1CCCN1C(=O)[C@H](CCCNC(=N)N)NC(=O)[C@H](CCC(N)=O)NC(=O)[C@H](CCCNC(=N)N)NC(=O)[C@H](CCCNC(=N)N)NC(=O)[C@H](Cc1ccccc1)NC(=O)[C@H](CCCCN)NC(=O)CCOCCOCCOCCOCCOCCOCCNC(=O)OCC1c2ccccc2-c2ccccc21)C(=O)NC(C)(C)C(=O)N[C@@H](Cc1ccc(Br)cc1)C(=O)O` ({Fmoc-PEG6}-KFRRQRPR[NMeL]SHKGP[Nle][Aib][Phe(4-Br)]-OH) are “Active” and “Tde”.
Take `CSCC[C@H](NC(=O)[C@@H]1CCCN1C(=O)CNC(=O)[C@H](CCCCN)NC(=O)[C@H](Cc1cnc[nH]1)NC(=O)[C@H](CO)NC(=O)[C@H](CC(C)C)NC(=O)[C@H](CCCNC(=N)N)NC(=O)[C@@H]1CCCN1C(=O)[C@H](CCCNC(=N)N)NC(=O)[C@H](CCC(N)=O)NC(=O)[C@H](CCCNC(=N)N)NC(=O)[C@H](CCCNC(=N)N)NC(=O)[C@H](Cc1ccccc1)NC(=O)[C@@H](N)CCCCN)C(=O)N1CCC[C@H]1C(=O)N[C@@H](Cc1ccccc1)C(=O)O`: the Activity entry in series [2] was “Tde”.
As for `CCCC[C@H](NC(=O)[C@@H]1CCCN1C(=O)CNC(=O)[C@H](CCCCN)NC(=O)[C@H](Cc1c[nH]cn1)NC(=O)[C@H](CO)NC(=O)[C@H](CC(C)C)N(C)C(=O)[C@H](CCCNC(=N)N)NC(=O)[C@@H]1CCCN1C(=O)[C@H](CCCNC(=N)N)NC(=O)[C@H](CCC(N)=O)NC(=O)[C@H](CCCNC(=N)N)NC(=O)[C@H](CCCNC(=N)N)NC(=O)[C@H](Cc1ccccc1)NC(=O)[C@@H](N)CCCCN)C(=O)NC(C)(C)C(=O)N[C@@H](Cc1ccc(Br)cc1)C(=O)O` (H-KFRRQRPR[NMeL]SHKGP[Nle][Aib][Phe(4-Br)]-OH), the “displacement activity (active/inactive)” value in series [1] is “Active”. Besides, in series [2], the Activity entry is “Tde”.
`CCCC[C@H](NC(=O)[C@@H]1CCCN1C(=O)CNC(=O)[C@H](CCCCN)NC(=O)[C@H](Cc1cnc[nH]1)NC(=O)[C@H](CO)NC(=O)[C@H](CC(C)C)NC(=O)[C@H](CCCNC(=N)N)NC(=O)[C@@H]1CCCN1C(=O)[C@H](CCCNC(=N)N)NC(=O)[C@H](CCC(N)=O)NC(=O)[C@H](CCCNC(=N)N)NC(=O)[C@H](CCCNC(=N)N)NC(=O)[C@H](Cc1ccccc1)NC(=O)[C@H](CCCCN)NC(=O)CCOCCOCCOCCOCCOCCOCCNC(=O)OCC1c2ccccc2-c2ccccc21)C(=O)NC(C)(C)C(=O)N[C@@H](Cc1ccc(Br)cc1)C(=O)O` ({Fmoc-PEG6}-KFRRQRPRLSHKGP[Nle][Aib][Phe(4-Br)]-OH): in series [1], the “displacement activity (active/inactive)” value is “Active”. The Activity entry in series [2] is “Tde”.
For `CCCCCCCCCCCCCCCC(=O)N[C@@H](CCCCN)C(=O)N[C@@H](Cc1ccccc1)C(=O)N[C@@H](CCCNC(=N)N)C(=O)N[C@@H](CCCNC(=N)N)C(=O)N[C@@H](CCC(N)=O)C(=O)N[C@@H](CCCNC(=N)N)C(=O)N1CCC[C@H]1C(=O)N[C@@H](CCCNC(=N)N)C(=O)N[C@@H](CC(C)C)C(=O)N[C@@H](CO)C(=O)N[C@@H](Cc1cnc[nH]1)C(=O)N[C@@H](CCCCN)C(=O)NCC(=O)N1CCC[C@H]1C(=O)N[C@@H](CCCC)C(=O)NC(C)(C)C(=O)N[C@@H](Cc1ccc(Br)cc1)C(=O)O` (Palmitoyl-KFRRQRPRLSHKGP[Nle][Aib][Phe(4-Br)]-OH), the “displacement activity (active/inactive)” value in series [1] is “Active”. The Activity result in series [2] was “Tde”.
With `CCCCCCCCCCCCCCCC(=O)N[C@@H](CCCCN)C(=O)N[C@@H](Cc1ccccc1)C(=O)N[C@@H](CCCNC(=N)N)C(=O)N[C@@H](CCCNC(=N)N)C(=O)N[C@@H](CCC(N)=O)C(=O)N[C@@H](CCCNC(=N)N)C(=O)N1CCC[C@H]1C(=O)N[C@@H](CCCNC(=N)N)C(=O)N(C)[C@@H](CC(C)C)C(=O)N[C@@H](CO)C(=O)N[C@@H](Cc1cnc[nH]1)C(=O)N[C@@H](CCCCN)C(=O)NCC(=O)N1CCC[C@H]1C(=O)N[C@@H](CCCC)C(=O)NC(C)(C)C(=O)N[C@@H](Cc1ccc(Br)cc1)C(=O)O` (Palmitoyl-KFRRQRPR[NMeL]SHKGP[Nle][Aib][Phe(4-Br)]-OH), the “displacement activity (active/inactive)” value in series [1] was “Active”. The outcome in series [8] was Active.
As to `CCCC[C@H](NC(=O)[C@@H]1CCCN1C(=O)CNC(=O)[C@H](CCCCN)NC(=O)[C@H](Cc1cnc[nH]1)NC(=O)[C@H](CO)NC(=O)[C@H](CC(C)C)N(C)C(=O)[C@H](CCCNC(=N)N)NC(=O)[C@@H]1CCCN1C(=O)[C@H](CCCNC(=N)N)NC(=O)[C@H](CCC(N)=O)NC(=O)[C@@H](N)CCCNC(=N)N)C(=O)NC(C)(C)C(=O)N[C@@H](Cc1ccc(Br)cc1)C(=O)O` (H-RQRPR[NMeL]SHKGP[Nle][Aib][Phe(4-Br)]-OH), the “displacement activity (active/inactive)” value in series [1] was “Active”. Further, the Activity result in series [2] is “Tde”.

In general, Km refers to the substrate concentration at which the rate is half of its maximum. What is called Vmax is the top rate of the reaction or transport when substrate is in excess. By kcat is commonly meant the maximal rate divided by the concentration of active sites. The term kcat/Km denotes the turnover number divided by the Michaelis constant.
